Assay results as given in PMC9021288 (Nature Communications, 2022).
Like-named read-outs stand apart in the source and are kept apart here.

Tested on: TA98, TA100, TA102, TA1535, TA1537
Description: Safety studies were performed by commercial services using their standard protocols. […] Genotoxicity was investigated using the Ames test (Bacterial Reverse Mutation Assay) (Covance Laboratories Ltd, North Yorkshire, England). In vitro mammalian cell micronucleus screening assay was studied in human peripheral blood lymphocytes (BioReliance Corporation, Rockville, USA). Cardiotoxicity was determined against the hERG channel in an automated patch clamp assay using the Qpatch or against the hNaV 1.5, hKV 1.5 and hCaV 1.2 using a manual patch-clamp technique (Metrion Biosciences, Cambridge, UK). Cytotoxicity in human and rat primary hepatocytes was assessed using the CellTiter-Blue assay performed by commercial services (KaLy-Cell). The viability of HepG2 cells was monitored through the addition of 1 mM resazurin. Following 6 h incubation, the relative amount of reduced resazurin was detected in a fluorimeter and compared to the assay controls (vehicle: 0.1% DMSO and positive control: 10 µM puromycin).

Q: Which “Fold Increase” value (TA98, +S-9, 5 ug/plate) does the source give for `C[C@@H](CNC(=O)[C@H](O)C(C)(C)CO)NC(=O)c1cc(F)c(F)cc1F` [MMV693183] here?
A: 1.1

Q: What about the “Mean (Revertant Numbers Per Plate)” value (TA98, +S-9, 5 ug/plate) of the same molecule?
A: 36.3

Q: What about the “Fold Increase” value (TA98, +S-9, 16 ug/plate) of the same molecule?
A: 1.1

Q: And the “Mean (Revertant Numbers Per Plate)” value (TA98, +S-9, 16 ug/plate)?
A: 37

Q: And the “Fold Increase” value (TA98, +S-9, 50 ug/plate)?
A: 1.2

Q: What about the “Mean (Revertant Numbers Per Plate)” value (TA98, +S-9, 50 ug/plate) of the same molecule?
A: 39.7

Q: What about the “Fold Increase” value (TA98, +S-9, 160 ug/plate) of the same molecule?
A: 1.1

Q: And the “Mean (Revertant Numbers Per Plate)” value (TA98, +S-9, 160 ug/plate)?
A: 36.7

Q: And the “Fold Increase” value (TA98, +S-9, 500 ug/plate)?
A: 1.3

Q: And the “Mean (Revertant Numbers Per Plate)” value (TA98, +S-9, 500 ug/plate)?
A: 42.3

Q: And the “Fold Increase” value (TA98, +S-9, 1600 ug/plate)?
A: 1

Q: And the “Mean (Revertant Numbers Per Plate)” value (TA98, +S-9, 1600 ug/plate)?
A: 32.3

Q: And the “Fold Increase” value (TA98, +S-9, 5000 ug/plate)?
A: 0.8

Q: And the “Mean (Revertant Numbers Per Plate)” value (TA98, +S-9, 5000 ug/plate)?
A: 26.3

Q: What about the “Fold Increase” value (TA98, -S-9, 5 ug/plate) of the same molecule?
A: 0.8

Q: What about the “Mean (Revertant Numbers Per Plate)” value (TA98, -S-9, 5 ug/plate) of the same molecule?
A: 22.3

Q: And the “Fold Increase” value (TA98, -S-9, 16 ug/plate)?
A: 1.1

Q: What about the “Mean (Revertant Numbers Per Plate)” value (TA98, -S-9, 16 ug/plate) of the same molecule?
A: 29.7

Q: And the “Fold Increase” value (TA98, -S-9, 50 ug/plate)?
A: 0.9

Q: And the “Mean (Revertant Numbers Per Plate)” value (TA98, -S-9, 50 ug/plate)?
A: 26.3

Q: And the “Fold Increase” value (TA98, -S-9, 160 ug/plate)?
A: 0.8

Q: What about the “Mean (Revertant Numbers Per Plate)” value (TA98, -S-9, 160 ug/plate) of the same molecule?
A: 23.7

Q: What about the “Fold Increase” value (TA98, -S-9, 500 ug/plate) of the same molecule?
A: 0.7

Q: And the “Mean (Revertant Numbers Per Plate)” value (TA98, -S-9, 500 ug/plate)?
A: 20.3

Q: And the “Fold Increase” value (TA98, -S-9, 1600 ug/plate)?
A: 0.8

Q: And the “Mean (Revertant Numbers Per Plate)” value (TA98, -S-9, 1600 ug/plate)?
A: 22.7

Q: And the “Fold Increase” value (TA98, -S-9, 5000 ug/plate)?
A: 1

Q: And the “Mean (Revertant Numbers Per Plate)” value (TA98, -S-9, 5000 ug/plate)?
A: 26.7

Q: And the “difference in revertant numbers vs control” value (TA98, TA100)?
A: < 2 fold

Q: And the “Fold Increase” value (TA100, +S-9, 5 ug/plate)?
A: 0.9

Q: What about the “Mean (Revertant Numbers Per Plate)” value (TA100, +S-9, 5 ug/plate) of the same molecule?
A: 107.3

Q: And the “Fold Increase” value (TA100, +S-9, 16 ug/plate)?
A: 1

Q: And the “Mean (Revertant Numbers Per Plate)” value (TA100, +S-9, 16 ug/plate)?
A: 122.7

Q: What about the “Fold Increase” value (TA100, +S-9, 50 ug/plate) of the same molecule?
A: 1.1

Q: What about the “Mean (Revertant Numbers Per Plate)” value (TA100, +S-9, 50 ug/plate) of the same molecule?
A: 128.3

Q: What about the “Fold Increase” value (TA100, +S-9, 160 ug/plate) of the same molecule?
A: 1

Q: What about the “Mean (Revertant Numbers Per Plate)” value (TA100, +S-9, 160 ug/plate) of the same molecule?
A: 114.7

Q: And the “Fold Increase” value (TA100, +S-9, 500 ug/plate)?
A: 1.1

Q: What about the “Mean (Revertant Numbers Per Plate)” value (TA100, +S-9, 500 ug/plate) of the same molecule?
A: 135

Q: And the “Fold Increase” value (TA100, +S-9, 1600 ug/plate)?
A: 0.9

Q: And the “Mean (Revertant Numbers Per Plate)” value (TA100, +S-9, 1600 ug/plate)?
A: 104

Q: What about the “Fold Increase” value (TA100, +S-9, 5000 ug/plate) of the same molecule?
A: 1

Q: What about the “Mean (Revertant Numbers Per Plate)” value (TA100, +S-9, 5000 ug/plate) of the same molecule?
A: 115.7

Q: What about the “Fold Increase” value (TA100, -S-9, 5 ug/plate) of the same molecule?
A: 1.1

Q: And the “Mean (Revertant Numbers Per Plate)” value (TA100, -S-9, 5 ug/plate)?
A: 99.3

Q: What about the “Fold Increase” value (TA100, -S-9, 16 ug/plate) of the same molecule?
A: 1.1

Q: What about the “Mean (Revertant Numbers Per Plate)” value (TA100, -S-9, 16 ug/plate) of the same molecule?
A: 94

Q: And the “Fold Increase” value (TA100, -S-9, 50 ug/plate)?
A: 1.2

Q: What about the “Mean (Revertant Numbers Per Plate)” value (TA100, -S-9, 50 ug/plate) of the same molecule?
A: 108.3

Q: What about the “Fold Increase” value (TA100, -S-9, 160 ug/plate) of the same molecule?
A: 1

Q: And the “Mean (Revertant Numbers Per Plate)” value (TA100, -S-9, 160 ug/plate)?
A: 86.3

Q: What about the “Fold Increase” value (TA100, -S-9, 500 ug/plate) of the same molecule?
A: 1.1

Q: What about the “Mean (Revertant Numbers Per Plate)” value (TA100, -S-9, 500 ug/plate) of the same molecule?
A: 93

Q: And the “Fold Increase” value (TA100, -S-9, 1600 ug/plate)?
A: 1.2

Q: And the “Mean (Revertant Numbers Per Plate)” value (TA100, -S-9, 1600 ug/plate)?
A: 102

Q: And the “Fold Increase” value (TA100, -S-9, 5000 ug/plate)?
A: 1.1

Q: What about the “Mean (Revertant Numbers Per Plate)” value (TA100, -S-9, 5000 ug/plate) of the same molecule?
A: 93

Q: And the “difference in revertant numbers vs control” value (TA102)?
A: < 1.5 fold

Q: And the “Fold Increase” value (TA102, +S-9, 5 ug/plate)?
A: 1.3

Q: And the “Mean (Revertant Numbers Per Plate)” value (TA102, +S-9, 5 ug/plate)?
A: 285

Q: What about the “Fold Increase” value (TA102, +S-9, 16 ug/plate) of the same molecule?
A: 1.3

Q: What about the “Mean (Revertant Numbers Per Plate)” value (TA102, +S-9, 16 ug/plate) of the same molecule?
A: 295.7

Q: What about the “Fold Increase” value (TA102, +S-9, 50 ug/plate) of the same molecule?
A: 1.3

Q: And the “Mean (Revertant Numbers Per Plate)” value (TA102, +S-9, 50 ug/plate)?
A: 295

Q: And the “Fold Increase” value (TA102, +S-9, 160 ug/plate)?
A: 1.3

Q: And the “Mean (Revertant Numbers Per Plate)” value (TA102, +S-9, 160 ug/plate)?
A: 298.7

Q: And the “Fold Increase” value (TA102, +S-9, 500 ug/plate)?
A: 1.3

Q: What about the “Mean (Revertant Numbers Per Plate)” value (TA102, +S-9, 500 ug/plate) of the same molecule?
A: 283

Q: What about the “Fold Increase” value (TA102, +S-9, 1600 ug/plate) of the same molecule?
A: 1.1

Q: And the “Mean (Revertant Numbers Per Plate)” value (TA102, +S-9, 1600 ug/plate)?
A: 257

Q: What about the “Fold Increase” value (TA102, +S-9, 5000 ug/plate) of the same molecule?
A: 0.8

Q: And the “Mean (Revertant Numbers Per Plate)” value (TA102, +S-9, 5000 ug/plate)?
A: 184.3

Q: What about the “Fold Increase” value (TA102, -S-9, 5 ug/plate) of the same molecule?
A: 1

Q: What about the “Mean (Revertant Numbers Per Plate)” value (TA102, -S-9, 5 ug/plate) of the same molecule?
A: 245.7
